{"source": "patent US20230201187A1", "about": "“USE OF NAD+ PRECURSORS, STING INHIBITORS, AND FXR AGONISTS FOR INHIBITING SARS-COV-2 (COVID-19)-INDUCED CYTOKINE RELEASE” (Georgetown University, priority 2020, published 2023)", "format_in_all_cases": "in vivo", "key": {"ERRα": {"test_system": "ERRα", "assay": "ERRα mRNA expression in kidneys of old mice (Example 2)", "conditions": "kidneys of 21-month-old mice; 1 mg/kg body weight/day intraperitoneally for three weeks; FIG. 3C", "description": "(§1) FIGS. 3A-3F show mRNA expression of peroxisome proliferator-activated receptor-gamma coactivator (PGC)-1α (PGC-1α) (FIG. 3A), PGC-1β (FIG. 3B), ERR-alpha (ERRα) (FIG. 3C), p21 (FIG. 3D), interleukin (IL)-1β (FIG. 3E), and signal transducer and activator of transcription 3 (Stat3) (FIG. 3F) in the kidneys of 4-month old (“young”) and 21-month-old (“old”) mice, in which a cohort of old mice were administered a STING inhibitor (“SI”), C-176, as described in Example 2.\n(§2) A study was conducted to evaluate expression levels of various markers and cytokines under inflammatory conditions, and the impact of administering a STING inhibitor on expression and protein levels.\n(§3) In one aspect of the study, mRNA expression levels of PGC-1α, PGC-1β, ERRα, p21, IL-1β, and Stat3 were examined in kidneys of mice that are 4 months old (young) and kidneys of mice that are 21 months old (aged and marked by inflammation).\n(§4) In a second aspect of the study, an inhibitor of STING, C-176, was administered (1 mg/kg body weight/day, administered intraperitoneally, for three weeks) to the 21-month-old mice."}, "Stat3 [1]": {"test_system": "Stat3", "assay": "Stat3 mRNA expression in kidneys of old mice (Example 2)", "conditions": "kidneys of 21-month-old mice; 1 mg/kg body weight/day intraperitoneally for three weeks; FIG. 3F", "description": "as §1, §2, §3, §4"}, "p-IRF3": {"test_system": "p-IRF3", "assay": "p-IRF3 protein levels in kidneys of db/db mice (Example 3)", "conditions": "kidneys of 4-month-old db/db mice; 1 mg/kg body weight/day intraperitoneally for eight weeks; FIG. 6C", "description": "(§5) FIGS. 6A-6C show p-Stat3 protein levels presented as an immunoblot (FIG. 6A) and quantified (FIG. 6B), and protein levels of phospho-interferon regulatory factor (p-IRF) (FIG. 6C) in the kidneys of […] diabetic mice (“db/db”) and non-diabetic mice (“db/m”) mice, in which a cohort of the mice were administered STING inhibitor C-176, as described in Example 3.\n(§6) A study was conducted to evaluate mRNA expression and protein levels of various markers and cytokines in kidneys of 4-month-old db/db mice, which is a model of type 2 diabetes due to a deficiency in leptin receptor activity, and in 4-month-old db/m mice, which are nondiabetic controls; and the effects of administering STING inhibitor C-176 (1 mg/kg body weight/day, administered intraperitoneally, for eight weeks) to these mice."}, "IL-1β [2]": {"test_system": "IL-1β", "assay": "IL-1β mRNA expression in kidneys of db/db mice (Example 3)", "conditions": "kidneys of 4-month-old db/db mice; 1 mg/kg body weight/day intraperitoneally for eight weeks; FIG. 5", "description": "as §6"}, "p-Stat3": {"test_system": "p-Stat3", "assay": "p-Stat3 protein levels in kidneys of db/db mice (Example 3)", "conditions": "kidneys of 4-month-old db/db mice; 1 mg/kg body weight/day intraperitoneally for eight weeks; FIGS. 6A and 6B", "description": "as §5, §6"}, "p21": {"test_system": "p21", "assay": "p21 mRNA expression in kidneys of old mice (Example 2)", "conditions": "kidneys of 21-month-old mice; 1 mg/kg body weight/day intraperitoneally for three weeks; FIG. 3D", "description": "as §1, §2, §3, §4"}, "IL-1β [3]": {"test_system": "IL-1β", "assay": "IL-1β mRNA expression in kidneys of old mice (Example 2)", "conditions": "kidneys of 21-month-old mice; 1 mg/kg body weight/day intraperitoneally for three weeks; FIG. 3E", "description": "as §1, §2, §3, §4"}, "PGC-1α [4]": {"test_system": "PGC-1α", "assay": "PGC-1α protein levels (immunoblot) in kidneys of old mice (Example 2)", "conditions": "kidneys of 21-month-old mice; 1 mg/kg body weight/day intraperitoneally for three weeks; FIGS. 4A and 4B", "description": "(§7) FIGS. 4A-4D show PGC-1α protein levels presented as an immunoblot (FIG. 4A) and quantified (FIG. 4B), and p-Stat3 protein levels presented as an immunoblot (FIG. 4C) and quantified (FIG. 4D), in the kidneys of 4-month old (“young”) and 21-month-old (“old”) mice, in which a cohort of the old mice were administered a STING inhibitor (“SI”), C-176, as described in Example 2.\nas §2, §4"}, "Stat3 [5]": {"test_system": "Stat3", "assay": "Stat3 protein levels (immunoblot) in kidneys of old mice (Example 2)", "conditions": "kidneys of 21-month-old mice; 1 mg/kg body weight/day intraperitoneally for three weeks; FIGS. 4C and 4D", "description": "as §7, §2, §4"}, "PGC-1β": {"test_system": "PGC-1β", "assay": "PGC-1β mRNA expression in kidneys of old mice (Example 2)", "conditions": "kidneys of 21-month-old mice; 1 mg/kg body weight/day intraperitoneally for three weeks; FIG. 3B", "description": "as §1, §2, §3, §4"}, "[6]": {"test_system": "inflammation in the kidneys of diabetic mice", "assay": "Inflammation in the kidneys of diabetic mice (Example 3)", "conditions": "db/db mice; 1 mg/kg body weight/day intraperitoneally for eight weeks", "description": "as §6"}, "PGC-1α [7]": {"test_system": "PGC-1α", "assay": "PGC-1α mRNA expression in kidneys of old mice (Example 2)", "conditions": "kidneys of 21-month-old mice; 1 mg/kg body weight/day intraperitoneally for three weeks; FIG. 3A", "description": "as §1, §2, §3, §4"}, "cGAS [8]": {"test_system": "cGAS", "assay": "cGAS mRNA expression in kidneys of young and old mice (Example 1)", "conditions": "kidneys of 21-month-old mice; 25 mg/kg body weight/day intraperitoneally for eight weeks; FIG. 1B", "description": "(§8) FIGS. 1A-1B show mRNA expression of STING (FIG. 1A) and cyclic guanosine monophosphate-adenosine monophosphate (cyclic GMP-AMP) synthase (cGAS) (FIG. 1B) in the kidneys of 4-month old (“young”) and 21-month-old (“old”) mice, in which a cohort of mice were administered a pan estrogen-related receptor (ERR) agonist, as described in Example 1.\n(§9) A study was conducted to evaluate STING and cGAS under inflammatory conditions.\n(§10) In one aspect of the study, mRNA expression and protein levels of STING and cGAS were assessed in kidneys of mice that are 4 months old (young) and kidneys of mice that are 21 months old (aged and marked by inflammation).\n(§11) In a second aspect of the study, 4-month-old mice and 21-month-old mice were treated with a pan ERR agonist, SLU-PP-332 (25 mg/kg body weight/day, administered intraperitoneally, for eight weeks)."}, "STING [9]": {"test_system": "STING", "assay": "STING protein levels (immunoblot) in kidneys of young and old mice (Example 1)", "conditions": "kidneys of 21-month-old mice; 25 mg/kg body weight/day intraperitoneally for eight weeks; FIGS. 2A and 2B", "description": "(§12) FIGS. 2A-2D show STING protein levels presented as an immunoblot (FIG. 2A) and quantified (FIG. 2B), and cGAS protein levels presented as an immunoblot (FIG. 2C) and quantified (FIG. 2D), in the kidneys of 4-month old (“young”) and 21-month-old (“old”) mice, in which a cohort of mice were administered a pan ERR agonist, as described in Example 1.\nas §9, §10, §11"}, "STING [10]": {"test_system": "STING", "assay": "STING mRNA expression in kidneys of young and old mice (Example 1)", "conditions": "kidneys of 21-month-old mice; 25 mg/kg body weight/day intraperitoneally for eight weeks; FIG. 1A", "description": "as §8, §9, §10, §11"}, "cGAS [11]": {"test_system": "cGAS", "assay": "cGAS protein levels (immunoblot) in kidneys of young and old mice (Example 1)", "conditions": "kidneys of 21-month-old mice; 25 mg/kg body weight/day intraperitoneally for eight weeks; FIGS. 2C and 2D", "description": "as §12, §9, §10, §11"}}}
{"smiles": "O=C(Nc1ccc(I)cc1)c1ccc([N+](=O)[O-])o1", "note": "[C-176, N-(4-iodophenyl)-5-nitro-2-furancarboxamide]", "values": [{"measurement": "mRNA expression of ERRα", "setting": "ERRα", "value": "reversed the decrease"}, {"measurement": "mRNA expression of Stat3", "setting": "Stat3 [1]", "value": "reversed the increase"}, {"measurement": "p-IRF3 levels", "setting": "p-IRF3", "value": "reversed the increase"}, {"measurement": "mRNA expression of IL-1β (activation of IL-1β)", "setting": "IL-1β [2]", "value": "reversed the activation"}, {"measurement": "p-Stat3 levels", "setting": "p-Stat3", "value": "reversed the increase"}, {"measurement": "mRNA expression of p21", "setting": "p21", "value": "reversed the increase"}, {"measurement": "mRNA expression of IL-1β", "setting": "IL-1β [3]", "value": "reversed the increase"}, {"measurement": "protein levels of PGC-1α", "setting": "PGC-1α [4]", "value": "reversed the decrease"}, {"measurement": "protein levels of Stat3", "setting": "Stat3 [5]", "value": "reversed the increase"}, {"measurement": "mRNA expression of PGC-1β", "setting": "PGC-1β", "value": "reversed the decrease"}, {"measurement": "inflammation in the kidneys of diabetic mice", "setting": "[6]", "value": "decreases inflammation"}, {"measurement": "mRNA expression of PGC-1α", "setting": "PGC-1α [7]", "value": "reversed the decrease"}]}
{"smiles": "O=C(N/N=C/c1ccc2ccccc2c1)c1ccc(O)cc1", "note": "[SLU-PP-332]", "values": [{"measurement": "mRNA expression of cGAS", "setting": "cGAS [8]", "value": "significantly reversed the increase"}, {"measurement": "protein levels of STING", "setting": "STING [9]", "value": "significantly reversed the increase"}, {"measurement": "mRNA expression of STING", "setting": "STING [10]", "value": "significantly reversed the increase"}, {"measurement": "protein levels of cGAS", "setting": "cGAS [11]", "value": "significantly reversed the increase"}]}
